According to PubChem BioAssay AID330 (DTP/NCI, 2004):
Values joined by “and” are separate entries in the source; they are usually repeats but may differ in a detail not shown here. Equal entries are not always repeated. Inconclusive results and toxic doses are left out. The calls were made as follows: active = survival T/C of 150% or more; inactive = T/C below 125% in these data.

Tested on: P388 leukemia ip, CD2F1 mice, survival T/C
Test: NCI In Vivo Anticancer Drug Screen. Data for tumor model P388 Leukemia (intraperitoneal) in CD2F1 (CDF1) mice
Conditions: endpoint: median survival time, higher = longer survival
Procedure, shortened: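 Mice carrying the transplanted tumor received test compound or vehicle. Survival was recorded in each group, and the value is the treated-group measurement divided by that of the vehicle-treated control group.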

[1] = dose: 50.0 mg/kg/injection, schedule: Q01DX009 (ip), vehicle: Klucel (hydroxypropylcellulose) (HPC)
[2] = dose: 100.0 mg/kg/injection, schedule: Q01DX009 (ip), vehicle: Klucel (hydroxypropylcellulose) (HPC)
[3] = dose: 200.0 mg/kg/injection, schedule: Q01DX009 (ip), vehicle: Klucel (hydroxypropylcellulose) (HPC)
[4] = dose: 15.0 mg/kg/injection, schedule: Q01DX005 (ip), vehicle: saline with Tween-80
[5] = dose: 120.0 mg/kg/injection, schedule: Q01DX005 (ip), vehicle: saline with Tween-80
[6] = dose: 60.0 mg/kg/injection, schedule: Q01DX005 (ip), vehicle: saline with Tween-80
[7] = dose: 240.0 mg/kg/injection, schedule: Q01DX005 (ip), vehicle: saline with Tween-80
[8] = dose: 100.0 mg/kg/injection, schedule: Q04DX003 (ip), vehicle: saline
[9] = dose: 200.0 mg/kg/injection, schedule: Q04DX003 (ip), vehicle: saline
[10] = dose: 50.0 mg/kg/injection, schedule: Q01DX005 (ip), vehicle: Klucel (hydroxypropylcellulose) (HPC)
[11] = dose: 100.0 mg/kg/injection, schedule: Q01DX005 (ip), vehicle: Klucel (hydroxypropylcellulose) (HPC)
[12] = dose: 200.0 mg/kg/injection, schedule: Q01DX005 (ip), vehicle: Klucel (hydroxypropylcellulose) (HPC)

Measured: T/C

CN(C)CC[CH2][Sn]([CH3])([c]1ccccc1)[c]1ccccc1
inactive: dose: 6.25 mg/kg/injection, schedule: Q01DX009 (ip), vehicle: suspension in saline 88 % of control | dose: 12.5 mg/kg/injection, schedule: Q01DX009 (ip), vehicle: suspension in saline 101 % of control | dose: 25.0 mg/kg/injection, schedule: Q01DX009 (ip), vehicle: suspension in saline 103 % of control

COc1nc(Nc2cccc(F)c2)nc(OC)n1
inactive: [1] 98 % of control | [2] 95 % of control | [3] 101 % of control

CC(Cl)CN1CCOC1=O (centres undefined)
inactive: dose: 12.5 mg/kg/injection, schedule: Q01DX001 (ip), vehicle: saline 106 % of control | dose: 25.0 mg/kg/injection, schedule: Q01DX001 (ip), vehicle: saline 96 % of control | dose: 50.0 mg/kg/injection, schedule: Q01DX001 (ip), vehicle: saline 105 % of control | dose: 100.0 mg/kg/injection, schedule: Q01DX001 (ip), vehicle: saline 102 % of control

CC(/C=C/c1cccc(C)c1)=N\NC(N)=S
inactive: dose: 3.75 mg/kg/injection, schedule: Q01DX005 (ip), vehicle: Klucel (hydroxypropylcellulose) (HPC) 106 % of control | dose: 7.5 mg/kg/injection, schedule: Q01DX005 (ip), vehicle: Klucel (hydroxypropylcellulose) (HPC) 105 % of control | dose: 30.0 mg/kg/injection, schedule: Q01DX005 (ip), vehicle: Klucel (hydroxypropylcellulose) (HPC) 122 % of control

CC(O)C(O)C(=O)O (centres undefined)
inactive: dose: 50.0 mg/kg/injection, schedule: Q01DX009 (ip), vehicle: saline 94 % of control | dose: 100.0 mg/kg/injection, schedule: Q01DX009 (ip), vehicle: saline 93 % of control | dose: 200.0 mg/kg/injection, schedule: Q01DX009 (ip), vehicle: saline 91 % of control | dose: 400.0 mg/kg/injection, schedule: Q01DX009 (ip), vehicle: saline 92 % of control

CCc1nc(N)nc(N)c1-c1ccc(NCCCCCCCCCCCCN)c([N+](=O)[O-])c1
inactive: [4] 117 % of control | dose: 30.0 mg/kg/injection, schedule: Q01DX005 (ip), vehicle: saline with Tween-80 107 % of control | [5] 91 % of control

CC(C)=CCC/C(C)=C/COC(=O)C=[N+]=[N-]
inactive: dose: 50.0 mg/kg/injection, schedule: Q01DX009 (ip), vehicle: saline with Tween-80 114 % of control and 91 % of control | dose: 100.0 mg/kg/injection, schedule: Q01DX009 (ip), vehicle: saline with Tween-80 122 % of control | dose: 200.0 mg/kg/injection, schedule: Q01DX009 (ip), vehicle: saline with Tween-80 117 % of control and 122 % of control | dose: 400.0 mg/kg/injection, schedule: Q01DX009 (ip), vehicle: saline with Tween-80 95 % of control

CCn1c2ccccc2c2c3ncc4cccn4c3ccc21
inactive: [6] 94 % of control | [5] 98 % of control | [7] 106 % of control

CCCNC12CN3CN(CN(C3)C1)C2
inactive: [8] 99 % of control | [9] 100 % of control | dose: 400.0 mg/kg/injection, schedule: Q04DX003 (ip), vehicle: saline 95 % of control

Cc1cc(C2c3ccccc3-c3ccccc32)cc(C)c1O
inactive: dose: 1.87 mg/kg/injection, schedule: Q01DX005 (ip), vehicle: saline with Tween-80 90 % of control | dose: 3.75 mg/kg/injection, schedule: Q01DX005 (ip), vehicle: saline with Tween-80 97 % of control | dose: 7.5 mg/kg/injection, schedule: Q01DX005 (ip), vehicle: saline with Tween-80 91 % of control | [4] 91 % of control | [6] 90 % of control | [7] 92 % of control

NCCCNC(=O)c1ccccc1N
inactive: [10] 100 % of control | [11] 100 % of control | [12] 100 % of control

IP1c2ccccc2P2P(I)c3ccccc3P12 (centres undefined)
inactive: [10] 102 % of control | [11] 108 % of control | [12] 105 % of control

CC(C)=NNS(=O)(=O)c1ccc(C)cc1
inactive: dose: 12.5 mg/kg/injection, schedule: Q01DX009 (ip), vehicle: Klucel (hydroxypropylcellulose) (HPC) 101 % of control | dose: 25.0 mg/kg/injection, schedule: Q01DX009 (ip), vehicle: Klucel (hydroxypropylcellulose) (HPC) 93 % of control | [1] 95 % of control | [2] 97 % of control | [3] 88 % of control

CC[N+](CC)(CC)CC
inactive: dose: 3.13 mg/kg/injection, schedule: Q04DX003 (ip), vehicle: saline with Tween-80 100 % of control | dose: 12.5 mg/kg/injection, schedule: Q04DX003 (ip), vehicle: saline with Tween-80 118 % of control

CCOC(=O)C(NC(=O)c1ccccc1)C(C)(C)SCc1ccccc1 (centres undefined)
inactive: dose: 50.0 mg/kg/injection, schedule: Q01DX005 (ip), vehicle: saline with Tween-80 103 % of control | dose: 100.0 mg/kg/injection, schedule: Q01DX005 (ip), vehicle: saline with Tween-80 101 % of control | dose: 200.0 mg/kg/injection, schedule: Q01DX005 (ip), vehicle: saline with Tween-80 95 % of control

CCCOCC(O)CNCCN (centres undefined)
inactive: [1] 100 % of control | [2] 102 % of control | [3] 109 % of control

CC(C)NCCCNC(=S)C(=S)NCCCNC(C)C
inactive: [10] 100 % of control | [11] 94 % of control

NC(=S)c1ccc2ccccc2c1
inactive: [10] 100 % of control | [11] 100 % of control | [12] 100 % of control

CCOC(=O)CCCCCCN(/C=C(\C)CN1c2c(nc(N)[nH]c2=O)NCC1CNc1ccc(C(=O)NC(CCC(=O)O)C(=O)O)cc1)C(C)=O (centres undefined)
inactive: dose: 50.0 mg/kg/injection, schedule: Q04DX003 (ip), vehicle: saline 97 % of control | [8] 99 % of control | [9] 98 % of control

CC(=O)CC1CC2(CCC1=O)OCCO2 (centres undefined)
inactive: dose: 100.0 mg/kg/injection, schedule: Q01DX009 (ip), vehicle: saline sonified 100 % of control | dose: 200.0 mg/kg/injection, schedule: Q01DX009 (ip), vehicle: saline sonified 100 % of control | dose: 400.0 mg/kg/injection, schedule: Q01DX009 (ip), vehicle: saline sonified 100 % of control

CN(C=O)c1ccc(C(=O)NC(CCC(=O)O)C(=O)O)cc1 (centres undefined)
inactive: dose: 60.0 mg/kg/injection, schedule: Q01DX005 (ip), vehicle: Klucel (hydroxypropylcellulose) (HPC) 98 % of control | dose: 120.0 mg/kg/injection, schedule: Q01DX005 (ip), vehicle: Klucel (hydroxypropylcellulose) (HPC) 98 % of control | dose: 240.0 mg/kg/injection, schedule: Q01DX005 (ip), vehicle: Klucel (hydroxypropylcellulose) (HPC) 89 % of control
